# From patent US20240158384A1, “CB2 RECEPTOR AGONISTS” (The Board of Trustees of the Leland Stanford Junior …, priority 2020, published 2024)
# pEC50, pIC50: −log10 of the molar value. “Also recorded” adds a separate entry of the source.
# Columns and labels:
# Brain protein binding = format: in vitro ADME; conditions: brain tissue
# Protocol: (§1) Detailed characterization data was collected for Compound 22. Primary assays were carried out according to Examples 2 and 3, while other assays were carried out according to standard methods.
# Male C57Bl6J mice = assay: Amphetamine-induced hyperactivity test; format: in vivo, mouse; conditions: compound i.p. 30 min before AMPH 2 mg/kg i.p., vs vehicle
# Protocol: Male C57Bl6J mice were evaluated in an activity chamber apparatus for the amphetamine-induced hyperactivity test. […] To determine the effects of Compound 22 on amphetamine-induced hyperactivity, mice were placed in the activity chamber for a 30 min baseline period. At the end of that period, mice were removed from the chamber, dosed intraperitoneally with Compound 22 (1 mg/kg, 3 mg/kg, or 10 mg/kg) or vehicle and returned to the home cage. Thirty minutes after dosing, mice were dosed (ip) with amphetamine (AMPH, 2 mg/kg) and immediately placed into the activity chamber for a one-hour post-dose session.
# 168 GPCRs = assay: Broad screening panel gpcrMAX; format: cell-based; conditions: gpcrMAX at 70 nM against 168 GPCRs
# Protocol: as §1
# DA response to reward = assay: GRAB-DA fiber photometry during operant task for sucrose reward; format: in vivo, mouse; conditions: injected 30 min before task, n=3, vs vehicle
# Protocol: In a second experiment, the same mice (n=3) were trained to nose poke a dedicated port to gain access to sucrose reward. During the task, GRAB-DA was used to measure DA release in response to reward. After ˜2 weeks of training, the effect of Compound 22 vs. vehicle on the DA response to reward was examined. On the first day, either drug or vehicle was injected followed by waiting 30 min, and then recording DA during the task. The order of drug vs. vehicle was counterbalanced between mice. […] Thus, Compound 22 appears to be capable of modulating both spontaneous and reward-related DA release.
# human CB2R [1] = biological target: T1, human CB2R (Homo sapiens, UniProt P34972); assay: cAMP Hunter eXpress GPCR assay, human CB2: inhibition of forskolin-stimulated cAMP in CHO cells; format: cell-based; parameters: host or cells: CHO cells
# Protocol: (§2) Briefly, cAMP Hunter eXpress Cells were seeded 18-24 h prior to the in a 96-well tissue culture treated assay plate and incubated in 5% CO2 at 37° C. in a humidified incubator. After removal of cell media, agonist compound and forskolin prepared in cell assay buffer was added and incubated at 37° C. The CB1 cAMP assay was stimulated with 20 μM final concentration of forskolin with 40 minutes incubation time. The CB2 cAMP assay was stimulated with 25 μM final concentration of forskolin with 35 minutes incubation time. The assay was stopped by incubation with antibody and working solution for 1 h at room temperature. After over 3 h incubation at room temperature in the dark with enzyme acceptor solution, chemiluminescence was measured on a CLARIOstar plate reader (BMG LABTECH Inc., Cary, NC, USA).
# Neurons/Microglia = assay: Cytotoxicity (Neurons/Microglia); format: cell-based
# Protocol: as §1
# human CB1R = biological target: T2, human CB1R (Homo sapiens, UniProt P21554); assay: cAMP Hunter eXpress GPCR assay, human CB1: inhibition of forskolin-stimulated cAMP in CHO cells; format: cell-based
# T2 construct: host or cells: CHO cells
# Protocol: as §2
# [2] = Mouse hepatocytes metabolic stability; format: in vitro ADME
# Protocol: as §1
# Plasma protein binding = format: in vitro ADME
# Protocol: as §1
# human CB2R [3] = biological target: T1, human CB2R; assay: PathHunter β-Arrestin assay, beta-arrestin recruitment; format: cell-based
# Protocol: The assay was performed using the PathHunter β-Arrestin human CB2 cell line (catalog no. 93-0706C2) and using the PathHunter® β-Arrestin Assay for GPCR Cell Lines (source: DiscoveRx, Fremont, CA, USA), according to the manufacturer's protocol (https://www.discoverx.com/tools-resources/document-resource-library/documents/user-manual-pathhunter-% CE % B2-arrestin-assay-for-gpcr-c). Briefly, cells were seeded at a density of 10,000 cells per well in a 96-well plate and incubated overnight (16-18 h) in a humidified atmosphere at 37° C. and 5% C02. Agonist prepared in PBS was added and the assay plate incubated for 3 h in a humidified atmosphere at 37° C. and 5% C02. Working detection solution was added and the plate was incubated for 1 h in the dark at room temperature. Chemiluminescence was measured on an CLARIOstar plate reader (BMG LABTECH Inc., Cary, NC, USA).
# GPR18 = biological target: T3, GPR18 (Homo sapiens, UniProt Q14330); assay: Off-target activity GPR18 (agonist, antagonist, PAM modes); format: cell-based
# T3 sequence (Q14330 1-331): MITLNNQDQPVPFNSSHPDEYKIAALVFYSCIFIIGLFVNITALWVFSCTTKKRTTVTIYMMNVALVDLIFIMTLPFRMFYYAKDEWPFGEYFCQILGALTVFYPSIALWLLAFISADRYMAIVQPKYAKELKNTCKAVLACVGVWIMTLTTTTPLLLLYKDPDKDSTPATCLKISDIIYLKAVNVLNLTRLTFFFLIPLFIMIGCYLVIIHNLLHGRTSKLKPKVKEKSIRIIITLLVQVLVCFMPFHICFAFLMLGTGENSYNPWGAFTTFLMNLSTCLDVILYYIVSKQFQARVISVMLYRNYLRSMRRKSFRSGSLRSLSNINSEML
# Protocol: as §1
# T1 sequence (P34972 whole entry): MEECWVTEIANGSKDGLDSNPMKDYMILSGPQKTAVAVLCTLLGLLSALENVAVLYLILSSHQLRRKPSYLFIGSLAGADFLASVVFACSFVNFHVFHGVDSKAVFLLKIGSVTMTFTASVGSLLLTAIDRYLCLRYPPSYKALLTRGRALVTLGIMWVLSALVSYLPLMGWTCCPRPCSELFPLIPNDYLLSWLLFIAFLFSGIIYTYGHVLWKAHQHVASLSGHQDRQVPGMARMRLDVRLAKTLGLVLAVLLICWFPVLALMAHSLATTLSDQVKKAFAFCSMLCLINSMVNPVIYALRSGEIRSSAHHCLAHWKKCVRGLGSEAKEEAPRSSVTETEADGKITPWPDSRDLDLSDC
# T2 sequence (P21554 whole entry): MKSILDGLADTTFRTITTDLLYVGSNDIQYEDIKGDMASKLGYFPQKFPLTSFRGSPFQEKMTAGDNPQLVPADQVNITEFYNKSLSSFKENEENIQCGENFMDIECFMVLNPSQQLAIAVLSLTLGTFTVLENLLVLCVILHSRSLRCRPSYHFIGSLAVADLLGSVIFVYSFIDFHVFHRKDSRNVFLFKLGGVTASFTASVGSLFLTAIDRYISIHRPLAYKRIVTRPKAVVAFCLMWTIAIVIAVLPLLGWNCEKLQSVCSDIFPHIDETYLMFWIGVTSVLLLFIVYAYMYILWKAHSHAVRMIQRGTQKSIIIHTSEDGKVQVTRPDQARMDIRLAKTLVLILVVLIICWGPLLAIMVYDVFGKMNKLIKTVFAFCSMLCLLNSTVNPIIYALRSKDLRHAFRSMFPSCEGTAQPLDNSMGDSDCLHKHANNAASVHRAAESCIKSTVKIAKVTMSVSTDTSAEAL
smiles,measurement,setting,value
"CC(C)(CO)c1cc(NC(=O)N2CCCN2c2ccc(C(F)(F)F)cc2)no1 [Compound 22, N-(5-(1-hydroxy-2-methylpropan-2-yl)isoxazol-3-yl)-2-(4-(trifluoromethyl)phenyl)pyrazolidine-1-carboxamide]",fraction unbound,Brain protein binding,0.0198
same,Amphetamine-induced hyperactivity,Male C57Bl6J mice,"reduces the hyperactivity induced by AMPH compared to vehicle controls, with significant reduction at 10 mg/kg; also recorded: able to reduce hyperactivity at doses as low as 0.1 mg/kg, i.p"
same,Activity in broad screening panel,168 GPCRs,No significant off
same,Ability to perform task and maximum reward-induced DA release,DA response to reward,not a significant effect on the ability of mice to perform this task or the maximum reward-induced DA release
same,DA response curve to sucrose reward,DA response to reward,appeared to widen the DA response curve
same,pEC50,"human CB2R [1]; Activity in primary assay: CB2 EC50, Table 6, hCB2 cAMP, agonist mode, mean of n = 3-5 expts on ≥2 batches",7.17
same,Selectivity (related family),human CB2R [1]; CB1/CB2 cAMP,150 fold selectivity
same,Selectivity (pathway),human CB2R [1]; CB2 cAMP/CB2 beta-arrestin,9 fold selectivity
same,CB2 agonist character (in words),"human CB2R [1]; cAMP assay, CP-55940 as full agonist control",potent agonists of CB2
same,Selectivity for CB2 over CB1 (in words),human CB2R [1]; cAMP assays hCB1 vs hCB2,selective for CB2 over CB1
same,Cytotoxicity (Neurons/Microglia),Neurons/Microglia,not toxic
same,pEC50,human CB1R,< 5.00
same,"Mouse hepatocytes metabolic stability, clearance class",[2],Medium clearance
same,half-life,[2]; read-out: Mouse hepatocytes metabolic stability t ½,> 2 h
same,fraction unbound,Plasma protein binding,0.0631
same,pEC50,human CB2R [3],6.24
same,Activation of beta-arrestin pathway (in words),"human CB2R [3]; hCB2, CP-55940 as control",weak beta-arrestin activity
same,pEC50,GPR18,< 5.00
same,pIC50,GPR18,< 5.00
